Assay results from patent US9163024B2, “Tris salts of 8-chloro-3-pentyl-3,7-dihydro-1H-purine-2,6-dione” (GlaxoSmithKline LLC, priority 2008, dated 2015).
Structures can show the parent of a compound that is named as a salt.

Key:
[1] = physical stability: conversion to a hydrated form during aqueous based processing (wet granulation); format: physicochemical; settings: during essential manufacturing processes / aqueous based processing steps, e.g. wet granulation; tris salt compared to free acid
solubility = format: physicochemical; settings: tris salt compared to free acid
absorption (Cmax, Tmax) = format: in vivo; settings: tris salt compared to free acid

SMILES	physical stability (remains in original form, no conversion by hydration) [1]	solubility (solubility)	Cmax (absorption (Cmax, Tmax))	Tmax (absorption (Cmax, Tmax); indicates faster absorption)
CCCCCn1c(=O)[nH]c(=O)c2[nH]c(Cl)nc21 [tris salt, 8-chloro-3-pentyl-3,7-dihydro-1H-purine-2,6-dione trishydroxymethylaminomethane]	enhanced physical stability	higher solubility than the free acid	increased	decreased
CCCCCn1c(=O)[nH]c(=O)c2[nH]c(Cl)nc21 [free acid, 8-chloro-3-pentyl-3,7-dihydro-1H-purine-2,6-dione]	readily convert to a hydrated form	–	–	–
